Measured values from patent EP4000606A1, “COMPOUNDS FOR CORONAVIRUS INFECTION TREATMENT AND/OR PREVENTION” (priority 2020, dated 2022).
Where two headings read alike, the source gives them in different places.

Test system: SARS-CoV-2
Assay: microbe, parasite or virus in culture
Type: cell-based
[1] = Severe acute respiratory syndrome coronavirus 2, 120 h

`CN1[C@@H]2CC[C@H]1C[C@@H](OC(=O)c1cc(Cl)cc(Cl)c1)C2` [compound 36, 1alphaH,3alpha,5alphaH-Tropan-3-yl-3,5-dichlorobenzoate; 3,5-Dichlorobenzoic acid endo-8-methyl-8-azabicyclo[3.2.1]oct-3-yl ester] was tested, and the “Maximum confluence reached (%)” value (5 days) was 69.05% and the IC50 [1] was 43.9 µM.
With `COc1ccccc1[C@H](Cn1c(=O)n(C(C)(C)C(=O)O)c(=O)c2c(C)c(-c3ncco3)sc21)OC1CCOCC1` [compound 61, 2-[1-[(2R)-2-(2-Methoxyphenyl)-2-(tetrahydro-2H-pyran-4-yloxy)ethyl]-5-methyl-6-(1,3-oxazol-2-yl)-2,4-dioxo-1,4-dihydrothieno[2,3-d]pyrimidin-3(2H)-yl]-2-methylpropanoic acid] the “Maximum confluence reached (%)” value (5 days) was 78.18%.
In the case of `CC(C)(C)c1cc(C=C(C#N)C#N)cc(Br)c1O` [compound 99, 2-(3-Bromo-5-tert-butyl-4-hydroxybenzylidene)propanedini trile 2-(3-Bromo-5-tert-butyl-4-hydroxybenzylidene)malononitrile], the “Maximum confluence reached (%)” value (5 days) is reported as 37.27% and the IC50 [1] is reported as 7.23 µM.
`CC(C)N1CCN(c2ccc(C(=O)c3c(-c4ccc(O)cc4)sc4cc(O)ccc34)cc2)CC1` [compound 87, 1-[6-Hydroxy-2-(4-hydroxyphenyl)-1-benzothien-3-yl]-1-[4-(4-isopropylpiperazin-1-yl)phenyl]methanone] was tested, and the “Maximum confluence reached (%)” value (5 days) was 41.04%.
For `Nc1ccc(C(=O)Nc2cccc(-c3nc(N4CCOCC4)c4oc5ncccc5c4n3)c2)cn1` [compound 104, 6-Amino-N-[3-[4-(4-morpholinyl)pyrido[3',2':4,5]furo [3,2-d]pyrimidin-2-yl]phenyl]pyridine-3-carboxamide], the “Maximum confluence reached (%)” value (5 days) was 35.48%.
In the case of “(1R,2S,3R)-3-(6-Amino-9H-purin-9-yl)-1,2-cyclopentanediol [compound 75]”, the “Maximum confluence reached (%)” value (confluence of SARS-CoV-2 infected VeroE6-EGFP cells after test compound treatment compared to control wells, 5 days) is reported as 33.14% and the IC50 (half maximal concentration able to recover the cytopathic effect of infection, VeroE6-EGFP cells, 0.01 MOI, 5 days, 8 concentrations, read-out: IC50) is reported as 0.36 µM.
In the case of `CN(C)c1cccc(-c2c3c(=O)n(-c4ccccc4Cl)[nH]c3cc(=O)n2C)c1` [compound 13, 2-(2-Chlorophenyl)-4-[3-(dimethylamino)phenyl]-5-methyl-1H-pyrazolo[4,3-c]pyridine-3,6(2H,5H)-dione], the “Maximum confluence reached (%)” value (5 days) is reported as 101.52% and the IC50 [1] is reported as 7.57 µM.
For `Nc1ncc(-c2ccnc(Nc3ccncc3)n2)c(CC2CC2)n1` [compound 20, 4'-(Cyclopropylmethyl)-N2-(pyridin-4-yl)-4,5'-bipyrimidine-2,2'-diamine], the “Maximum confluence reached (%)” value (5 days) was 98.17%.
`CC1(N2CCC(n3c([C@@H]4CCCNC4)nc4ccccc43)CC2)CCCCCCC1` [compound 51, 1-[1-(1-Methylcyclooctyl)piperidin-4-yl]-2-[3(R)-piperidinyl]-1H-benzimidazole] was tested, and the “Maximum confluence reached (%)” value (5 days) was 57.77%.
For `Cc1nc(N)nc(N)c1-c1ccc(Cl)c(Cl)c1` [compound 41, 5-(3,4-Dichlorophenyl)-6-methylpyrimidine-2,4-diamine], the “Maximum confluence reached (%)” value (5 days) was 58.02%.
For `CC(C)(C)C(=O)C(=Cc1cccc([N+](=O)[O-])c1)n1cncn1` [compound 76, 4,4-dimethyl-1-(3-nitrophenyl)-2-(1H-1,2,4-triazol-1-yl)-1-penten-3-one], the “Maximum confluence reached (%)” value was 50.44% and the IC50 [1] was 4.33 µM.
For `CN1CCN(CCCN2c3ccccc3Sc3ccc(C(F)(F)F)cc32)CC1.Cl.Cl` [compound 94, 10-[3-(4-Methylpiperazin-1-yl)propyl]-2-(trifluoromethyl)-10H-phenothiazine dihydrochloride], the “Maximum confluence reached (%)” value (5 days) was 37.97%.
With `CC(C)(O)CNc1ncc(-c2ccnc(Nc3ccnc(Cl)c3)n2)c(CC2CC2)n1` [compound 60, 1-[[2-[(2-chloro-4-pyridinyl)amino]-4'-(cyclopropylmethyl) [4,5'-bipyrimidin]-2'-yl]amino]-2-methyl-2-propanol] the “Maximum confluence reached (%)” value (5 days) was 45.62%.
With `COc1cc2c(NC3CCN(C(C)C)CC3)nc(N3CCC(F)(F)CC3)nc2cc1OCCCN1CCCC1` [compound 95, 2-(4,4-Difluoropiperidin-1-yl)-6-methoxy-N-[1-(propan-2-yl)piperidin-4-yl]-7-[3-(pyrrolidin-1-yl)propoxy]quinazolin-4-amine] the “Maximum confluence reached (%)” value (5 days) was 31.06%.
For `Cl.O=C(c1c2ccccc2cc2ccccc12)N1CCC(N2CCC[C@@H](C(=O)N3CCOCC3)C2)CC1` [compound 101, 1-[1'-(Anthracen-9-ylcarbonyl)-1,4'-bipiperidin-3(R)-yl]-1-(4-morpholinyl)methanone hydrochloride], the “Maximum confluence reached (%)” value (5 days) was 50.88%.
With `C#CCC(Cc1cnc2nc(N)nc(N)c2n1)c1ccc(C(=O)N[C@@H](CCC(=O)O)C(=O)O)cc1` (stereo partly drawn) [compound 3, N-[4-[2-(2,4-Diaminopteridin-6-yl)-1-(2-propynyl)ethyl]benzoyl]-L-glutamic acid 10-Propargyl-10-deazaaminopterin] the “Maximum confluence reached (%)” value (5 days) was 76.65%.
With `Cc1[nH]c(/C=C2\C(=O)Nc3ccc(S(=O)(=O)Cc4c(Cl)cccc4Cl)cc32)c(C)c1C(=O)N1CCC[C@@H]1CN1CCCC1` [compound 53, 5-(2,6-Dichlorobenzylsulfonyl)-3(Z)-[3,5-dimethyl-4-[2(R)-(pyrrolidin-1-ylmethyl)pyrrolidin-1-ylcarbonyl]-1H-pyrrol-2-ylmethylene]-2,3-dihydro-1H-indol-2-one] the “Maximum confluence reached (%)” value (5 days) was 95.69%.
For `CCN(CC)CCO[C@H]1CC[C@@]2(C)C(=CC[C@@H]3[C@@H]2CC[C@]2(C)C(=O)CC[C@@H]32)C1.Cl` [compound 80, 3beta-[2-(Diethylamino)ethoxy]androst-5-en-17-one hydrochloride], the “Maximum confluence reached (%)” value (5 days) was 44.66%.
“(4R,4aS)-18-Ethenyl-4,4a-dihydro-3,4-bis(methoxycarbonyl)-4a,8,14,19-tetramethyl-24H,26H-benzo[b]porphine-9,13-dipropanoic acid monomethyl ester [compound 39]” was tested, and the “Maximum confluence reached (%)” value (5 days) was 89.5% and the IC50 (read-out: IC50) was 30 µM.
`CC(C)(C)c1cc(C=C(C#N)C#N)cc(C(C)(C)C)c1O` [compound 66, (3,5-Di-tert-butyl-4-hydroxybenzylidene)malononitrile] was tested, and the “Maximum confluence reached (%)” value (5 days) was 47.6%.
In the case of `CN1CCN(CC/C=C2/c3ccccc3Sc3ccc(S(=O)(=O)N(C)C)cc32)CC1` [compound 109, (Z)-N,N-Dimethyl-9-[3-(4-methyl-1-piperazinyl)propylidene]thioxant hene-2-sulfonamide], the “Maximum confluence reached (%)” value (5 days) is reported as 36.55%.
For `CC(C)COCC(CN(Cc1ccccc1)c1ccccc1)N1CCCC1.Cl.O` (stereo not drawn) [compound 78, 1-[1-(N-Benzylanilino)-3-isobutoxy-2-propyl]pyrrolidine monohydrochloride monohydrate], the “Maximum confluence reached (%)” value (5 days) was 30.41%.
`Cc1cccc(Nc2nc(-c3ccncc3)cs2)c1` [compound 85, N-(3-Methylphenyl)-4-(4-pyridyl)thiazol-2-amine] was tested, and the “Maximum confluence reached (%)” value (5 days) was 47.81%.
With `COc1ccc2c(c1)[C@]1(C[C@H]1c1ccc3c(/C=C/c4ccc(CN5C[C@@H](C)O[C@@H](C)C5)cc4)n[nH]c3c1)C(=O)N2.O=C(O)/C=C/C(=O)O` [compound 33, (1R,2S)-2-[3-[(E)-2-[4-[(cis-2,6-Dimethylmorpholin-4-yl)methyl]phenyl]vinyl]-1H-indazol-6-yl]-5'-methoxyspiro[cyclopropane-1,3'-indol]-2'(1'H)-one (2E)-but-2-enedioate] the “Maximum confluence reached (%)” value (5 days) was 105.46%.
For `Oc1c(Cl)cc(Cl)cc1Sc1cc(Cl)cc(Cl)c1O` [compound 102, 2,2'-Thio-bis(4,6-dichlorophenol), Bis(2-hydroxy-3,5-dichlorophenyl) sulfide], the “Maximum confluence reached (%)” value (5 days) was 31.25%.
In the case of `C/C(=C\c1ccc(C(=O)O)cc1)c1ccc2c(c1)C(C)(C)CCC2(C)C` [compound 26, 4-[2-(5,5,8,8-Tetramethyl-5,6,7,8-tetrahydronaphthalen-2-yl)-1(E)-propenyl]benzoic acid], the “Maximum confluence reached (%)” value (5 days) is reported as 105.73% and the IC50 [1] is reported as 33.7 µM.
With `N#Cc1cccc(C#N)c1-c1nc2c3ccc(Cl)cc3c3ccccc3c2[nH]1` [compound 64, 2-(6-Chloro-1H-phenanthro[9,10-d]imidazol-2-yl)benzene-1,3-dicarbonitrile] the “Maximum confluence reached (%)” value (5 days) was 98.48%.
`C[C@H]1CCC/C=C/[C@@H]2C[C@H](O)C[C@H]2[C@H](O)/C=C/C(=O)O1` (relative stereo) [compound 47, (1R,2S,7S,13S,15S)-2,15-Dihydroxy-7-methyl-6-oxabicyclo[11.3.0]hexadeca-3(E),11(E)-dien-5-one [1S-(1R*,2E,6R*,10E,11aR*,13R*,14a S*)]-1,6,7,8,9,11a,12,13,14,14a-Decahydro-1,13-dihydroxy-6-methyl-4H-cyclopent[f]oxacyclotridecin-4-one] gave an Emax (Severe acute respiratory syndrome coronavirus 2, 120 h, 5 days, read-out: Maximum confluence reached (%)) of 122%.
With `CNCc1ccc(-c2cc(-c3nc(-c4ccc(S(=O)(=O)C(C)C)cc4)cnc3N)on2)cc1` [compound 34, 3-[3-[4-[(Methylamino)methyl]phenyl]-1,2-oxazol-5-yl]-5-[4-(propan-2-ylsulfonyl)phenyl]pyrazin-2-amine] the “Maximum confluence reached (%)” value (5 days) was 99.21%.
For `CC[C@@]1([C@@H]2O[C@@H]([C@H]3O[C@@](O)(COC(=O)Nc4ccccc4)[C@H](C)C[C@@H]3C)C[C@@H]2C)CC[C@H]([C@]2(C)CC[C@]3(C[C@H](O)[C@@H](C)[C@@H]([C@@H](C)[C@@H](OC)[C@H](C)C(=O)[O-])O3)O2)O1.[Na+]` [compound 98, 4(S)-[(2S,5R,7S,8R,9S)-2-[(2S,2'R,3'S,5R,5'R)-2-Ethyl-5'-[6(R)-hydroxy-3(S),5(R)-dimethyl-6-(phenylaminocarbonyloxymethyl)tetrahydropyran-2(S)-yl]-3'-methylperhydro-2,2'-bifuran-5-yl]-9-hydroxy-2,8-dimethyl-1,6-dioxaspiro[4.5]dec-7-yl]-3(R)-methoxy-2(S)-methylpentanoic acid sodium salt], the “Maximum confluence reached (%)” value (5 days) was 38.24% and the IC50 [1] was 3.18 µM.
With `COc1ccc2cc1Oc1ccc(cc1)C[C@H]1c3cc(c(OC)cc3CCN1C)Oc1c(OC)c(OC)cc3c1[C@H](C2)N(C)CC3` [compound 79, (1beta)-(S,S)-6,6',7,12-Tetramethoxy-2,2'-dimethylberbaman] the “Maximum confluence reached (%)” value (5 days) was 99.64%.
